According to patent US20180192651A1, “THERMAL VOLATILIZATION OF ORCO AGONISTS” (VANDERBILT UNIVERSITY, priority 2015, published 2018):

Columns and labels:
[1] = tested on: Capitate peg neurons B/C (cpB/C), neurons known to contain Orco; assay: Single sensillum recordings (SSRs), maxillary palp capitate peg neurons B/C; format: in vivo, Anopheles gambiae; conditions: for Puffing cpB/C: Puffing: airstream only for compound delivery; for Huffing cpB/C: Huffing: airstream in combination with heat (propane or butane torch)
Procedure: (§1) Single sensillum recordings (SSRs) were performed on single capitate peg (cp) sensillum along the maxillary palps that house three types of olfactory receptor neurons (ORNs). 5- to 7-d-old non-blood fed female Anopheles gambiae that were maintained on 10% sucrose at 12h/12h light/dark cycle were used. Mosquitoes were immobilized by chilling at -20° C. for 1 min before removing wings and legs and then fixing on a glass coverslip covered with double-sided sticky tape. Maxillary palps were extended and held onto the double-sided sticky tape with a piece of hair brush thread. Chloridized silver wires in drawn-out glass capillaries were filled with 0.1% KCl and used as reference and recording electrodes. The reference electrode was placed in the eye, and recording electrode was brought into contact with the sensillum under the microscope (Olympus BX51WI; 800× magnification) by use of a Piezo-Patch micromaniputor (PPM5000; World Precision Instruments). The signals were digitized by the IDAC4 interface box (Syntech, Hilversum, The Netherlands) and offline analysis carried out by using analyzed with AutoSpike v. 3.2 software (Syntech). The extracellular activity of individual capitate peg sensillum ORNs are physiologically distinct and can be characterized into cpA (large), cpB (medium), and cpC (small) based on their spike amplitudes and shape. Responses were quantified by subtracting the number of spikes 1 s before odor stimulation from the number of spikes 1 s after the onset of odor stimulation from individual preparations. […] A 25 μL (VUAA1) or 25 μL aliquot (VUAnt) was then applied to a filter paper strip and placed inside a glass Pasteur pipette. The compound was then delivered by heating the pipette by a propane or butane torch right at the place of treatment for approximately 1 seconds. The compound was then delivered by puffing the odor cartridges with a controlled 0.5-s stimulus of air (5 mL/s) into a humidified airstream (10 mL/s), which was passed over the sensillum. Alternatively, 2-5 mgs of solid compound were measured into a glass Pasteur pipette. The glass pipette was then exposed to heat from a micro propane or butane torch for approximately 5 to 10 seconds. The compound was then delivered by puffing the odor cartridges with a controlled 0.5-s stimulus of air (5 mL/s) into a humidified airstream (10 mL/s), which was passed over the sensillum. Each compound was subjected to in vivo single […] recordings (SSRs) from the maxillary palp of An. gambiae. Puffing refers to use of an airstream only for compound delivery. Huffing refers to the use of an airstream in combination with heat. Specifically, huffing involved direct combustion of the solid compound via propane or butane torch. […] Capitate peg neurons B/C (cpB/C) are neurons known to contain Orco. Carbon dioxide activates only cpA, while 1-octen-3-ol is a known activator of cpB/C.

[2] = tested on: Capitate peg neuron A (cpA), a carbon dioxide sensor that does not contain Orco; assay: Single sensillum recordings (SSRs), maxillary palp capitate peg neuron A; format: in vivo, Anopheles gambiae; conditions: cpA is the negative control; for Puffing cpA: Puffing: airstream only for compound delivery; for Huffing cpA: Huffing: airstream in combination with heat (propane or butane torch)
Procedure: as §1

[3] = tested on: odorant receptor neuronal cells expressing Orco; assay: Currents in odorant receptor neuronal cells expressing Orco; format: cell-based, Drosophila melanogaster; conditions: thermally volatized compound; FIG. 3

For `O=C=O` [CO2, carbon dioxide, reference compound], the “Puffing cpB/C” value [1] was “− (− = <10 spikes/s)” and the “Puffing cpA” value [2] was “+++ (+++ = >40 spikes/s)”.
With `C=CC(O)CCCCC` (centres unmarked) [Compound 1-octen-3-ol, 1-octen-3-ol, reference compound] the “Puffing cpB/C” value [1] was “+++ (+++ = >40 spikes/s)” and the “Puffing cpA” value [2] was “− (− = <10 spikes/s)”.
In the case of `CCn1c(SCC(=O)Nc2ccc(C)cc2)nnc1-c1cccnc1` [Compound 1], the “Huffing cpB/C” value [1] is reported as “+++ (+++ = >40 spikes/s)”, the “Puffing cpB/C” value [1] is reported as “− (− = <10 spikes/s)” and the “Huffing cpA” value [2] is reported as “− (− = <10 spikes/s)”. For the same compound, the “Puffing cpA” value [2] was “− (− = <10 spikes/s)”.
For `CCc1ccc(NC(=O)CSc2nnc(-c3cccnc3)n2CC)cc1` [Compound 2], the “Huffing cpB/C” value [1] was “+ (+ = 10-20 spikes/s)”, the “Puffing cpB/C” value [1] was “− (− = <10 spikes/s)” and the “currents induced in odorant receptor neuronal cells expressing Orco” value [3] was “currents induced”. The “Huffing cpA” value [2] was “− (− = <10 spikes/s)” and the “Puffing cpA” value [2] was “− (− = <10 spikes/s)”.
In the case of `CCn1c(SCC(=O)N2c3ccccc3Sc3ccccc32)nnc1-c1ccco1` [Compound 4, 2-[[4-ethyl-5-(2-furanyul)-4H-1,2,4-triazol-3-yl]thio]-1-(10OH-phenothiazin-10-yl)-ethanone], the “Huffing cpB/C” value [1] is reported as “+ (+ = 10-20 spikes/s)”, the “Puffing cpB/C” value [1] is reported as “− (− = <10 spikes/s)” and the “Huffing cpA” value [2] is reported as “+ (+ = 10-20 spikes/s)”. The “Puffing cpA” value [2] was “− (− = <10 spikes/s)”.
